Results from PMC7562955 (Nature Communications, 2020).

Biological target: T1, human TLR8 (Homo sapiens, UniProt Q9NR97)
T1 construct: host or cells: HEK293 (TLR8/NF-κB/SEAPorter)
T1 sequence (Q9NR97 27-1041): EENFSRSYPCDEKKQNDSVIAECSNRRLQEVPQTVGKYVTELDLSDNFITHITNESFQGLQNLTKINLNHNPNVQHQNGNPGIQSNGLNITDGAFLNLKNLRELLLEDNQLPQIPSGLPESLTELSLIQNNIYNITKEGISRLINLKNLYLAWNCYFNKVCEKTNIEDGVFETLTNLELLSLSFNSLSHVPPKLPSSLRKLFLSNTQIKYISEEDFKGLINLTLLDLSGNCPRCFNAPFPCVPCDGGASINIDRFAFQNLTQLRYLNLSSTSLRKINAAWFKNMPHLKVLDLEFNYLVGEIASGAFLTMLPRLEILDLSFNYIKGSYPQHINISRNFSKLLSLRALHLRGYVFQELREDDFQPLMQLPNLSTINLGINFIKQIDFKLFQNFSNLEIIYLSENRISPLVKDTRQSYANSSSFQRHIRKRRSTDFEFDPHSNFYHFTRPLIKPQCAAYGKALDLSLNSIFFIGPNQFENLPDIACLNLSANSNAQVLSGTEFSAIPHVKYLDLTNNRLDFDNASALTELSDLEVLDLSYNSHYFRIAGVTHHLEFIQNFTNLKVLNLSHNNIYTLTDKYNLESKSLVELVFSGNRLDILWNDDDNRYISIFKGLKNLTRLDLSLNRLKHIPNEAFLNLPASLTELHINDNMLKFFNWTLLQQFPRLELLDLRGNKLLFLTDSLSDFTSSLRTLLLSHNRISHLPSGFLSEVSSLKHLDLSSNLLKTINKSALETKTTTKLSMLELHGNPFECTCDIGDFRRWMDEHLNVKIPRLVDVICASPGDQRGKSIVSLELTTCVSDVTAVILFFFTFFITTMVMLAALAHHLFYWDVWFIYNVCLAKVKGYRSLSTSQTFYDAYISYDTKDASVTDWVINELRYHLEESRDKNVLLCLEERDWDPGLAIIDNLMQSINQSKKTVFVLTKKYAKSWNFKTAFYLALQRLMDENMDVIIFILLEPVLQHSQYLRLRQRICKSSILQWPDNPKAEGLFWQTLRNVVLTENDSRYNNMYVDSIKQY
Experiment: Human TLR8 reporter gene inhibitory activity assay (NF-κB/SEAP HEK293)
Type: cell-based
Design: key to human TLR8 activity, reporter signal: SEAP activity as absorbance at 405 nm
Settings: for human TLR8 activity, reporter signal: R848 30 μM
Experimental: Compounds were dissolved in dimethyl sulfoxide. Before stimulation with compound, Human TLR7 reporter cell line (TLR7/NF-κB/SEAPorter^TM HEK293 cell, Novus Biological, USA), human TLR8 reporter cell line (TLR8/NF-κB/SEAPorter^TM HEK293 cell, Novus Biological), and human TLR9 reporter cell line (TLR9/NF-κB/SEAPorter^TM HEK293 cell, Novus Biological) were seeded in 96-well microtiter plate (AGC techno glass, Japan) at 5 × 10^4 cells/well in DMEM (GIBCO, United Kingdam) with 10 % fetal bovine serum (GIBCO), and 10 ug/ml Blastcidin S HCl (GIBCO) and incubated at 37 °C in 5% CO2. […] The plates were then incubated an additional 20 ± 1 h at 37 °C in 5% CO2 and then the secreted embryonic alkaline phosphatase (SEAP) activity was measured as activation of human TLR7, 8, and 9. The SEAP activity was evaluated as follows: pNPP (Invitrogen, USA) was added to the incubated sample (50 μl/well); after 15 min, 4 M sodium hydroxide solution (nacalai tesque, Japan) was added thereto (50 μl/well) to quench the reaction; and the absorbance of each sample was measured at 405 nm with microplate reader SpectraMax M4 (Molecular Devices, USA).

Row | SMILES | inhibition of TLR8 | human TLR8 activity, reporter signal (compound 0.0001 nM (as headed)) | human TLR8 activity, reporter signal (compound 0.001 nM (as headed)) | human TLR8 activity, reporter signal (compound 0.003 nM (as headed)) | human TLR8 activity, reporter signal (compound 0.01 nM (as headed)) | human TLR8 activity, reporter signal (compound 0.03 nM (as headed)) | human TLR8 activity, reporter signal (compound 0.1 nM (as headed)) | human TLR8 activity, reporter signal (compound 0.3 nM (as headed)) | human TLR8 activity, reporter signal (compound 1 nM (as headed)) | human TLR8 activity, reporter signal (compound 3 nM (as headed)) | human TLR8 activity, reporter signal (compound 10 nM (as headed)) | human TLR8 activity, reporter signal (compound 30 nM (as headed)) | human TLR8 activity, reporter signal (compound 100 nM (as headed))
1 | CCCCOc1nc(N)c2nc(-c3cccnc3)n(Cc3ccccc3)c2n1 [Cpd-5] | without causing any inhibition | 2.52 | 2.344 | 2.316 | 2.3178 | 2.3193 | 2.309 | 2.404 | 2.342 | 2.269 | 2.216 | 2.0417 | 2.1673
2 | CCOc1nc(N)c2nc(-c3cncc(F)c3)n(Cc3ccc(CN4C[C@@H]5C[C@H]4CN5C)cc3)c2n1 [Cpd-6] |  | 2.3942 | 2.34 | 2.276 | 2.199 | 2.181 | 2.241 | 2.31 | 2.218 | 2.159 | 2.04 | 1.859 | 1.331
3 | CCOc1nc(C)c2nc(-c3cncc(F)c3)n(Cc3ccc(CN4C[C@@H]5C[C@H]4CN5C)cc3)c2n1 [Cpd-7] |  | 2.3942 | 2.221 | 2.201 | 2.199 | 2.25 | 2.186 | 2.297 | 2.272 | 2.178 | 2.071 | 1.909 | 1.678
